PMC9737972, “Dual LSD1 and HDAC6 Inhibition Induces Doxorubicin Sensitivity in Acute Myeloid Leukemia Cells” (Cancers, 2022)

Columns and labels:
THP-1 = test: Cell Titer-Glo cell viability, THP-1; assay type: cell-based; conditions: Homo sapiens, THP-1; 120 h, ± standard deviation, three biological repeats; read-out: IC50 cell viability THP-1
C-terminal His-tag-HDAC8 = biological target: T1, C-terminal His-tag-HDAC8 (Homo sapiens, UniProt Q9BY41); test: HDAC-Glo I/II enzyme assay, HDAC8; assay type: biochemical; conditions: ± standard error, three independent measurements
T1 construct: His (C); purchased BPS Bioscience 50008
T1 sequence (Q9BY41 1-377): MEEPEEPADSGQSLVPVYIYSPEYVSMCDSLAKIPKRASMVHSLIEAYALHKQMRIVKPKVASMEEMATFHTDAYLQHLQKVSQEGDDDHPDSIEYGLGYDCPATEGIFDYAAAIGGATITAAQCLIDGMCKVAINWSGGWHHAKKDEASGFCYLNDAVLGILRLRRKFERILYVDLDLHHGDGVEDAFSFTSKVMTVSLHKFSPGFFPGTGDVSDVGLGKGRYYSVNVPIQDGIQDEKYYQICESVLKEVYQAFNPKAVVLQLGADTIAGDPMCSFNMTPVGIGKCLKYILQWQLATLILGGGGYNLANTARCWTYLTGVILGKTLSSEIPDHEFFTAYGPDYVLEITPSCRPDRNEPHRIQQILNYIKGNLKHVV

HDAC6 = biological target: T2, HDAC6 (Homo sapiens, UniProt Q9UBN7); test: Cellular thermal shift assay (CETSA), HDAC6; assay type: cell-based; conditions: THP-1 cells, 1 h; 4 μM (methods, Figure 2), Figure S14 legend 500 nM
T2 construct: endogenous in cells; host or cells: THP-1
T2 sequence (Q9UBN7 1-1215): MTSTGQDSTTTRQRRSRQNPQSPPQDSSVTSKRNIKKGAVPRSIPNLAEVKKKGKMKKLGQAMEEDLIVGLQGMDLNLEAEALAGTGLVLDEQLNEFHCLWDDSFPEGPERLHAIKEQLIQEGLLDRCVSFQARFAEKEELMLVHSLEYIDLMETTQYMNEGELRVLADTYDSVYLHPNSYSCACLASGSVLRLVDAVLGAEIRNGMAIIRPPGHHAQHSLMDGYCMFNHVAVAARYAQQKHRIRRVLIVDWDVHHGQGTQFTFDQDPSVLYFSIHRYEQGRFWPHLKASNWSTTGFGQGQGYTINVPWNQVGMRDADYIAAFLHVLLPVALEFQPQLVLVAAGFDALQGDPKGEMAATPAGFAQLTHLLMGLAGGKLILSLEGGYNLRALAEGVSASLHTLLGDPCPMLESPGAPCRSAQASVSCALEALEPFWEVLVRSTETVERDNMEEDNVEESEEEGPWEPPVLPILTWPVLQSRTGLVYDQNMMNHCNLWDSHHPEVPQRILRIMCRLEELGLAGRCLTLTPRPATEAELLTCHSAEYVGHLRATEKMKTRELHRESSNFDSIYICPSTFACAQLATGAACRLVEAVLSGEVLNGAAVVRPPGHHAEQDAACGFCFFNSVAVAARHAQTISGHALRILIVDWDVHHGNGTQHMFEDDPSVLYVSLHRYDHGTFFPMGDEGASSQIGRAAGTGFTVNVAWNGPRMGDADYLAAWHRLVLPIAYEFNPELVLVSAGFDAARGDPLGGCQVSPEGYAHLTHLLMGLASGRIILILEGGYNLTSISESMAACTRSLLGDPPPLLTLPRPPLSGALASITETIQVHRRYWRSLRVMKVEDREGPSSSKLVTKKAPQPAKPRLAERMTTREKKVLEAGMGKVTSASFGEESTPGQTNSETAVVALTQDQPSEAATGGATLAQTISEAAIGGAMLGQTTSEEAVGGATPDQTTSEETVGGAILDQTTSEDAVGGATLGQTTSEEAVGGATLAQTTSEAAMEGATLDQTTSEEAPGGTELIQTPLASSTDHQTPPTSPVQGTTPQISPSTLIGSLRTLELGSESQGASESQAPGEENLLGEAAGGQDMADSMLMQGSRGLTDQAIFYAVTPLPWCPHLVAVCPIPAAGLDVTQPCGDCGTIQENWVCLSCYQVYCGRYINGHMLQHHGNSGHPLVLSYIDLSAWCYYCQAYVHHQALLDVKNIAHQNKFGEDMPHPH
Protocol: (§1) THP-1 cells, 1 × 10^7 cells at a density of 1 × 10^6 cells/mL, were treated with 4 μM of test compounds (1 h, 37 °C, 5% CO2). Cells were centrifuged, and the pellet was resuspended with 1 × Phosphate Buffer Saline (Gibco, Grand Island, NY, USA, #10010023) containing 1 × Protease Inhibitor Cocktail (Cell Signaling Technology, Beverly, MA, USA, #5871) and 1 mM phenylmethylsulfonyl fluoride (PMSF, Sigma Aldrich, St. Louis, MO, USA, #10837091001). The suspension volume was divided equally and heated for 3 min at 43–64 °C in a T100 Thermal Cycler (Bio-rad, Hercules, CA, USA). For protein extraction, cells were snap-frozen using liquid nitrogen, thawed twice (25 °C, 1 min), then centrifuged (20,000× g, 15 min, 4 °C). Following centrifugation, protein containing supernatants were denatured at 70 °C for 10 min and loaded on SDS-PAGE gels (Bio-Rad, Hercules, CA, USA, 161-0317). After electrophoresis (100 V and 60 min), proteins were transferred onto PVDF membrane (Bio-Rad #1620177) at 200 mA for 180 min and immunoblotted with primary antibodies (1:10,000 dilution for anti-LSD1 Antibody ab129195 [EPR6825], 1:1000 dilution for Anti-HDAC6 Antibody CST 7558, 1:1000 dilution for Anti-HDAC1 Antibody ab53091, 1:1000 dilution for Anti-HDAC8 Antibody ab187139, 1:5000 dilution for Anti-beta Actin Antibody ab8227) overnight at 4 °C. The next day, membranes were incubated with HRP-conjugated secondary antibodies (1:5000 dilution for Abcam, Cambridge, UK, ab205718) for 1 h at room temperature. The signal was detected with BIORAD Chemi-Doc XRS+ System and by using Immobilon Forte Western HRP Substrate (WBLUF0500).

LSD1 [1] = biological target: T3, LSD1 (Homo sapiens, UniProt O60341); test: LSD1 MALDI-TOF enzyme assay; assay type: biochemical; design: made in house; conditions: ± standard error, three independent measurements
normal RPE-1 cells = test: Cell viability of normal RPE-1 cells (CTG); assay type: cell-based; conditions: 120 h
HDAC8 = biological target: T4, HDAC8 (Homo sapiens, UniProt Q9BY41); test: Cellular thermal shift assay (CETSA), HDAC8; assay type: cell-based; conditions: THP-1 cells, 1 h; 4 μM (methods, Figure 2), Figure S14 legend 500 nM
T4 construct: endogenous in cells; host or cells: THP-1
T4 sequence (Q9BY41 1-377): T1 sequence (Q9BY41 1-377)
Protocol: THP-1 cells, 1 × 10^7 cells at a density of 1 × 10^6 cells/mL, were treated with 4 μM of test compounds (1 h, 37 °C, 5% CO2). Cells were centrifuged, and the pellet was resuspended with 1 × Phosphate Buffer Saline (Gibco, Grand Island, NY, USA, #10010023) containing 1 × Protease Inhibitor Cocktail (Cell Signaling Technology, Beverly, MA, USA, #5871) and 1 mM phenylmethylsulfonyl fluoride (PMSF, Sigma Aldrich, St. Louis, MO, USA, #10837091001). The suspension volume was divided equally and heated for 3 min at 43–64 °C in a T100 Thermal Cycler (Bio-rad, Hercules, CA, USA). For protein extraction, cells were snap-frozen using liquid nitrogen, thawed twice (25 °C, 1 min), then centrifuged (20,000× g, 15 min, 4 °C). Following centrifugation, protein containing supernatants were denatured at 70 °C for 10 min and loaded on SDS-PAGE gels (Bio-Rad, Hercules, CA, USA, 161-0317). […] The signal was detected with BIORAD Chemi-Doc XRS+ System and by using Immobilon Forte Western HRP Substrate (WBLUF0500).

THP-1 cells = test: Caspase 3/7 and 7-AAD staining (flow cytometry); conditions: sublethal concentration (5 μM)
[2] = tested on: LSD1 and HDAC substrates in THP-1 cells; test: Western blot of methylation and acetylation levels of LSD1 and HDAC substrates; assay type: cell-based; conditions: 4 μM
LSD1 [3] = biological target: T3, LSD1; test: Cellular thermal shift assay (CETSA), LSD1; assay type: cell-based; design: endogenous in cells; host or cells: THP-1; conditions: THP-1 cells, 1 h; 4 μM (methods, Figure 2), Figure S14 legend 500 nM
Protocol: as §1

| Structure (SMILES) | IC50 (THP-1) [µM] | IC50 (C-terminal His-tag-HDAC8) [µM] | thermal stabilization of HDAC6 (CETSA) (HDAC6) | IC50 (LSD1 [1]) [µM] | toxicity on normal RPE-1 cells (normal RPE-1 cells) | thermal stabilization of HDAC8 (CETSA) (HDAC8) | apoptosis by caspase activity, compound alone (THP-1 cells) | levels of the histone substrate H3K4me2 ([2]; 24 h) | nuclear histone H3 acetylation (H3K18ac and H3K27ac levels), change vs DMSO ([2]; 24 h (ricolinostat 0.75 μM or 4 μM)) | thermal stabilization of LSD1 (CETSA) (LSD1 [3]) |
| --- | --- | --- | --- | --- | --- | --- | --- | --- | --- | --- |
| O=C(NO)c1ccc(CN2CCC(CNC3(c4ccccc4)CC3)CC2)cc1 [iHDAC6] | 9.7 ± 2.4 | 0.45 ± 0.07 | stabilized HDAC6 only | > 100 |  |  |  |  |  |  |
| O=C(NO)c1ccc(CN2CCC(CN[C@@H]3C[C@H]3c3ccccc3)CC2)cc1 (relative stereo) [iDual] | 16.3 ± 5.4 | 0.29 ± 0.04 | increased thermal stability |  | no significant toxicity | not significantly stabilized | did not induce apoptosis | increase | two-fold | increased thermal stability |
